This assay concerns the target T1, hSCN9A (Homo sapiens, UniProt Q15858).
T1 construct: expressed in transfected cells
The assay is described as follows: Whole-cell patch-clamp electrophysiology (conventional or PatchXpress), HEK cells expressing hSCN9A, estimated IC-50. In kind it is cell-based. The conditions noted are these: estimated IC-50, HEK cells expressing hSCN9A; class symbols or bounds; read-out: SCN9A EIC-50. The protocol:
Human Embryonic Kidney (HEK) cells were transfected with hSCN3A or hSCN9A constructs using lipofectamine reagent (Invitrogen), using standard techniques. Cells stably expressing the hSCN3A or hSCN9A constructs were identified by their resistance to G-418 (400 μg/ml). Clones were screened for expression using the whole-cell voltage-clamp technique. HEK cells stably transfected with hSCN3A or hSCN9A were maintained in DMEM medium supplemented with 10% heat-inactivated fetal bovine serum and 400 μg/ml G418 sulfate in an incubator at 37° C. with a humidified atmosphere of 10% CO2. For HTS, cells were harvested from flasks by trypsinization and replated in an appropriate multi-well plate (typically 96 or 384 wells/plate) such that confluence would be achieved within 24 hours of plating. For electrophysiological studies, cells were removed from the culture flask by brief trypsinization and replated at low density onto glass cover slips. Cells were typically used for electrophysiological experiments within 24 to 72 h after plating. Cover slips containing HEK cells expressing hSCN3A or hSCN9A were placed in a bath on the stage of an inverted microscope and perfused (approximately 1 ml/min) with extracellular solution of the following composition: 138 mM NaCl, 2 mM CaCl2, 5.4 mM KCl, 1 mM MgCl2, 10 mM glucose, and 10 mM HEPES, pH 7.4, with NaOH. […] All recordings were made at room temperature (22-24° C.) using AXOPATCH 200B amplifiers and PCLAMP software (Axon Instruments, Burlingame, Calif.) or PatchXpress 7000 hardware and associated software (Axon Instruments, Burlingame, Calif.). hSCN3A or hSCN9A currents in HEK cells were measured using the whole-cell configuration of the patch-clamp technique (Hamill et al., 1981). […] As a result, voltage errors were negligible and no correction was applied. Current records were acquired at 20 to 50 KHz and filtered at 5 to 10 KHz. HEK cells stably transfected with hSCN3A or hSCN9A were viewed under Hoffman contrast optics and placed in front of an array of flow pipes emitting either control or compound-containing extracellular solutions. All compounds were dissolved in dimethyl sulfoxide to make 10 mM stock solutions, which were then diluted into extracellular solution to attain the final concentrations desired. […] The voltage-dependence of inactivation was determined by applying a series of depolarizing prepulses (8 sec long in 10 mV increments) from a negative holding potential. The voltage was then immediately stepped to 0 mV to assess the magnitude of the sodium current. Currents elicited at 0 mV were plotted as a function of prepulse potential to allow estimation of the voltage midpoint of inactivation (V1/2). Cells were then voltage clamped at the empirically determined V1/2. Compounds were tested for their ability to inhibit hSCN3A or hSCN9A sodium channels by activating the channel with a 20 msec voltage step to 0 mV following an 8 second conditioning prepulse to the empirically determined V1-2 (Table B). Compound effect (% inhibition) was determined by difference in current amplitude before and after application of test compounds. […] In some cases electrophysiological assays were conducted with PatchXpress 7000 hardware and associated software (Molecular Devices Corp) (Table B). All assay buffers and solutions were identical to those used in conventional whole-cell voltage clamp experiments described above. hSCN3A or hSCN9A containing cells were grown as above to 50%-80% confluency and harvested by trypsinization. Trypsinized cells were washed and resuspended in extracellular buffer at a concentration of 1×10^6 cells/ml. The onboard liquid handling facility of the PatchXpress was used for dispensing cells and application of test compounds. Determination of the voltage midpoint of inactivation was as described for conventional whole-cell recordings. Cells were then voltage-clamped to the empirically determined V1/2 and current was activated by a 20 msec voltage step to 0 mV.

Structures are written as SMILES.

T1 sequence (Q15858 whole entry): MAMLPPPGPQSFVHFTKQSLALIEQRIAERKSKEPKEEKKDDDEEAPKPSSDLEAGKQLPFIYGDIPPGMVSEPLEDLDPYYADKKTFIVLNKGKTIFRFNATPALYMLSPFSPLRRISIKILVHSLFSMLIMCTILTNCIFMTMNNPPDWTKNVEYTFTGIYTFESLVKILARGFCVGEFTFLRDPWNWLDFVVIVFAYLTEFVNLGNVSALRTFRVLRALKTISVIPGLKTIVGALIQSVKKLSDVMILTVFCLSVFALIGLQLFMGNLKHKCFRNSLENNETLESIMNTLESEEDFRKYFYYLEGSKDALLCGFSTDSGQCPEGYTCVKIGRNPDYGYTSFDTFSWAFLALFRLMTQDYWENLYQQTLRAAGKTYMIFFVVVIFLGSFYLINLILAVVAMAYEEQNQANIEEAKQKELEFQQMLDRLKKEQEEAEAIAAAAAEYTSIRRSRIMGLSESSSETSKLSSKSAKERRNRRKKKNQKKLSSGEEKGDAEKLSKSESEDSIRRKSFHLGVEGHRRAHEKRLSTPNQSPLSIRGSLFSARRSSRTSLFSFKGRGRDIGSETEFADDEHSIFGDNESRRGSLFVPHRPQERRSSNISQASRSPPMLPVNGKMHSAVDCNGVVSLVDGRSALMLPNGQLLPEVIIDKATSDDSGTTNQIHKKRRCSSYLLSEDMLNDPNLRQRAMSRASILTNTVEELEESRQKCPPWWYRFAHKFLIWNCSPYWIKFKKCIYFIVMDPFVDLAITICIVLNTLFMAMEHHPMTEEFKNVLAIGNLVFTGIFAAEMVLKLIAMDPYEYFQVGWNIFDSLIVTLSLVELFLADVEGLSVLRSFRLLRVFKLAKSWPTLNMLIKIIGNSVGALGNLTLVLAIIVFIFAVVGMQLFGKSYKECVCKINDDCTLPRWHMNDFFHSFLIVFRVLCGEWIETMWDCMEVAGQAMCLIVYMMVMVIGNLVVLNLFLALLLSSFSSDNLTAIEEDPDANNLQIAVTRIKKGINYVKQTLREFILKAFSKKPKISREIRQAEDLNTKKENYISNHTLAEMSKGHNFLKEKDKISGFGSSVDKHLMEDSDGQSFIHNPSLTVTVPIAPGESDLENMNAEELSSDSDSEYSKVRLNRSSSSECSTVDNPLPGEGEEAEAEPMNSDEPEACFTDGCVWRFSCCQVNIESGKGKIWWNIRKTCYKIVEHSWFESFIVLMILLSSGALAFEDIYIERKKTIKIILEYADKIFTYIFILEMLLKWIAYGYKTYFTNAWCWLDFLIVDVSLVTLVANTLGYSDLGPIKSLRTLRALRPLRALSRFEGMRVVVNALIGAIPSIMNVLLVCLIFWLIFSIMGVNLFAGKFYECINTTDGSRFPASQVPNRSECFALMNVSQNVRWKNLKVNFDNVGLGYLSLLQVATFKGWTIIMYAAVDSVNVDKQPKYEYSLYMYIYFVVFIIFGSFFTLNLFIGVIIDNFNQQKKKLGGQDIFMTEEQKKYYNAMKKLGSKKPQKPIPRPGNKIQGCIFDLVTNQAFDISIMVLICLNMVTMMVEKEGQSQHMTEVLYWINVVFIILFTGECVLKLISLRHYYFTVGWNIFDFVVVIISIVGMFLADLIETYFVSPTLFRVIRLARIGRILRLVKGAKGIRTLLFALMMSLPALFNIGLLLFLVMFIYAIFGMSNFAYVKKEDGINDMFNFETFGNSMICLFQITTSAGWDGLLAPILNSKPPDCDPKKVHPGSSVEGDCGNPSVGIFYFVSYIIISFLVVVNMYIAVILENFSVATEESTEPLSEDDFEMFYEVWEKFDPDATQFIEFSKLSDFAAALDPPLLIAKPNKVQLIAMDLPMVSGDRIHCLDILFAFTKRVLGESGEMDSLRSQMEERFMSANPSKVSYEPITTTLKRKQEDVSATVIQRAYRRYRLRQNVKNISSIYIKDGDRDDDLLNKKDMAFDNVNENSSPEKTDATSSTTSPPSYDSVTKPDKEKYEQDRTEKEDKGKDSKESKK

As to `Cc1cc(Nc2ccc(S(=O)(=O)Nc3nccs3)c(F)c2)n(-c2c(F)cccc2F)n1` [Compound 190, 4-(1-(2,6-difluorophenyl)-3-methyl-1H-pyrazol-5-ylamino)-2-fluoro-N-(thiazol-2-yl)benzenesulfonamide], the IC50 was less than 2000 nM.

As to `Cc1cc(Nc2ccc(S(=O)(=O)Nc3nccs3)c(F)c2)n(C(C)(C)C)n1` [Compound 192, 4-(1-tert-butyl-3-methyl-1H-pyrazol-5-ylamino)-2-fluoro-N-(thiazol-2-yl)benzenesulfonamide], the IC50 was 2000 to 10000 nM. Take `CC(C)(C)n1nc(Cc2cccc(Cl)c2)cc1Nc1ccc(S(=O)(=O)Nc2nccs2)cc1` [Compound 194, 4-(1-tert-butyl-3-(3-chlorobenzyl)-1H-pyrazol-5-ylamino)-N-(thiazol-2-yl)benzenesulfonamide]: the IC50 was 2000 to 10000 nM.

As to `CC(C)(C)n1nc(Cc2cccc(Cl)c2)cc1Nc1ccc(S(=O)(=O)Nc2nccs2)cc1F` [Compound 195, 4-(1-tert-butyl-3-(3-chlorobenzyl)-1H-pyrazol-5-ylamino)-3-fluoro-N-(thiazol-2-yl)benzenesulfonamide], the IC50 was less than 2000 nM. Then `Cn1nc(Cc2ccc(Cl)c(F)c2)cc1Nc1ccc(S(=O)(=O)Nc2nccs2)cc1` [Compound 196, 4-(3-(4-chloro-3-fluorobenzyl)-1-methyl-1H-pyrazol-5-ylamino)-N-(thiazol-2-yl)benzenesulfonamide], with less than 2000 nM.

As for `O=S(=O)(Nc1nccs1)c1ccc(Nc2ccn(Cc3ccc(Cl)cc3F)n2)cc1F` [Compound 197, 4-(1-(4-chloro-2-fluorobenzyl)-1H-pyrazol-3-ylamino)-2-fluoro-N-(thiazol-2-yl)benzenesulfonamide], the IC50 is less than 2000 nM.

As for `O=S(=O)(Nc1nccs1)c1ccc(Nc2ncn(Cc3ccc(Cl)cc3)n2)c(F)c1` [Compound 199, 4-(1-(4-chlorobenzyl)-1H-1,2,4-triazol-3-ylamino)-3-fluoro-N-(thiazol-2-yl)benzenesulfonamide], the IC50 is less than 2000 nM. For `O=S(=O)(Nc1nccs1)c1ccc(Nc2ncn(Cc3cccc(C(F)(F)F)c3)n2)c(F)c1` [Compound 200, 3-fluoro-N-(thiazol-2-yl)-4-(1-(3-(trifluoromethyl)benzyl)-1H-1,2,4-triazol-3-ylamino)benzenesulfonamide], the IC50 was less than 2000 nM. Turning to `Cc1cc(Nc2ccc(S(=O)(=O)Nc3nccs3)c(F)c2)n(C2CCN(C)CC2)n1` [Compound 202, 2-fluoro-4-(3-methyl-1-(1-methylpiperidin-4-yl)-1H-pyrazol-5-ylamino)-N-(thiazol-2-yl)benzenesulfonamide], the IC50 is 2000 to 10000 nM.

In the case of `Cc1cc(Nc2ccc(S(=O)(=O)Nc3nccs3)cc2F)n(-c2ccccc2F)n1` [Compound 203, 3-fluoro-4-(1-(2-fluorophenyl)-3-methyl-1H-pyrazol-5-ylamino)-N-(thiazol-2-yl)benzenesulfonamide], the IC50 was less than 2000 nM. As to `O=S(=O)(Nc1nccs1)c1ccc(Nc2ncn(Cc3ccc(F)cc3Cl)n2)c(F)c1` [Compound 207, 4-(1-(2-chloro-4-fluorobenzyl)-1H-1,2,4-triazol-3-ylamino)-3-fluoro-N-(thiazol-2-yl)benzenesulfonamide], the IC50 was less than 2000 nM.

Consider `O=S(=O)(Nc1nccs1)c1ccc(Nc2ncn(Cc3ccccc3Cl)n2)c(F)c1` [Compound 208, 4-(1-(2-chlorobenzyl)-1H-1,2,4-triazol-3-ylamino)-3-fluoro-N-(thiazol-2-yl)benzenesulfonamide], for which the IC50 was less than 2000 nM. For the compound `Cn1nc(Cc2ccc(Cl)c(F)c2)cc1Nc1ccc(S(=O)(=O)Nc2nccs2)cc1F` [Compound 209, 4-(3-(4-chloro-3-fluorobenzyl)-1-methyl-1H-pyrazol-5-ylamino)-3-fluoro-N-(thiazol-2-yl)benzenesulfonamide], the IC50 was less than 2000 nM. For `Cn1nc(Cc2ccc(Cl)c(F)c2)cc1Nc1ccc(S(=O)(=O)Nc2nccs2)c(F)c1` [Compound 210, 4-(3-(4-chloro-3-fluorobenzyl)-1-methyl-1H-pyrazol-5-ylamino)-2-fluoro-N-(thiazol-2-yl)benzenesulfonamide], the IC50 is less than 2000 nM.

For `O=S(=O)(Nc1nccs1)c1ccc(Nc2ccn(Cc3ccccc3)n2)cc1F` [Compound 211, 4-(1-benzyl-1H-pyrazol-3-ylamino)-2-fluoro-N-(thiazol-2-yl)benzenesulfonamide], the IC50 is 2000 to 10000 nM. To `O=S(=O)(Nc1nccs1)c1ccc(Nc2ccn(Cc3ccc(Cl)cc3)n2)cc1C(F)(F)F` [Compound 212, 4-(1-(4-chlorobenzyl)-1H-pyrazol-3-ylamino)-N-(thiazol-2-yl)-2-(trifluoromethyl)benzenesulfonamide] belongs 2000 to 10000 nM; to `CN(C)C(=O)Cc1cc(Nc2ccc(S(=O)(=O)Nc3nccs3)c(F)c2)n(-c2ccccc2)n1` [Compound 213, 2-(5-(3-fluoro-4-(N-thiazol-2-ylsulfamoyl)phenylamino)-1-phenyl-1H-pyrazol-3-yl)-N,N-dimethylethanamide], 2000 to 10000 nM; to `COc1ccccc1-n1nc(C(C)(C)C)cc1Nc1ccc(S(=O)(=O)Nc2nccs2)c(F)c1` [Compound 214, 4-(3-tert-butyl-1-(2-methoxyphenyl)-1H-pyrazol-5-ylamino)-2-fluoro-N-(thiazol-2-yl)benzenesulfonamide], less than 2000 nM.

For `COc1ccccc1-n1nc(C)cc1Nc1ccc(S(=O)(=O)Nc2nccs2)cc1F` [Compound 215, 3-fluoro-4-(1-(2-methoxyphenyl)-3-methyl-1H-pyrazol-5-ylamino)-N-(thiazol-2-yl)benzenesulfonamide], the IC50 is less than 2000 nM. Regarding `O=S(=O)(Nc1nccs1)c1ccc(Nc2ccn(Cc3ccc(F)cc3)n2)cc1F` [Compound 217, 2-fluoro-4-(1-(4-fluorobenzyl)-1H-pyrazol-3-ylamino)-N-(thiazol-2-yl)benzenesulfonamide], the IC50 was less than 2000 nM. For the compound `Cn1nc(Cc2cccc(Cl)c2)cc1Nc1ccc(S(=O)(=O)Nc2nccs2)cc1` [Compound 218, 4-(3-(3-chlorobenzyl)-1-methyl-1H-pyrazol-5-ylamino)-N-(thiazol-2-yl)benzenesulfonamide], the IC50 was less than 2000 nM. As to `Cn1nc(Cc2cccc(Cl)c2)cc1Nc1ccc(S(=O)(=O)Nc2nccs2)cc1F` [Compound 219, 4-(3-(3-chlorobenzyl)-1-methyl-1H-pyrazol-5-ylamino)-3-fluoro-N-(thiazol-2-yl)benzenesulfonamide], the IC50 was less than 2000 nM. As for `COc1cccc(-n2nc(C)cc2Nc2ccc(S(=O)(=O)Nc3nccs3)c(F)c2)c1` [Compound 220, 2-fluoro-4-(1-(3-methoxyphenyl)-3-methyl-1H-pyrazol-5-ylamino)-N-(thiazol-2-yl)benzenesulfonamide], the IC50 was less than 2000 nM. As to `NC(=O)c1cn(Cc2ccc(Cl)cc2)nc1Nc1ccc(S(=O)(=O)Nc2nccs2)c(F)c1` [Compound 221, 1-(4-chlorobenzyl)-3-(3-fluoro-4-(N-thiazol-2-ylsulfamoyl)phenylamino)-1H-pyrazole-4-carboxamide], the IC50 was 2000 to 10000 nM. Regarding `COc1ccccc1-c1cc(Nc2ccc(S(=O)(=O)Nc3nccs3)c(F)c2)n(C)n1` [Compound 223, 2-fluoro-4-(3-(2-methoxyphenyl)-1-methyl-1H-pyrazol-5-ylamino)-N-(thiazol-2-yl)benzenesulfonamide], the IC50 is less than 2000 nM.

Values taken from patent US8124610B2, “Sodium channel inhibitors” (Icagen Inc., priority 2007, dated 2012).
